This is an account of results in US20050054680A1, “Agonists and antagonists of 5h3-like receptors of invertebrates as pesticides” (priority 2001, published 2005).

For data set [1], the system named is larvae of the lepidopteran Helicoverpa armigera. The note with it: in vivo; cited from earlier work.
A further data set deals with C. elegans. The note with it: cited from earlier work.
The subject of another data set is nematode C. elegans. To be noted: cited from earlier work; for Effect on pharyngeal pumping: as summarised in the background, no concentration given; for Effect on serotonin-stimulated rate of pharyngeal pumping: drug 0.325 mM, serotonin 0.325 mM.
The test system of a further data set is insects. To be noted: in vivo; cited from earlier work.
The test system of data set [2] is C. elegans of the Bristol N2 strain. Description: Automated feeding assay (bead ingestion, pharyngeal pumping). The class given is in vivo, Caenorhabditis elegans. The note with it: for Effect of 0.325 mM compound on serotonin-stimulated (0.325 mM) bead ingestion: 0.325 mM compound plus 0.325 mM serotonin; for Effect of 0.325 mM compound on bead ingestion: no added serotonin; for IC50: Caenorhabditis elegans. An excerpt:
An automated screening assay has been developed and described in the present Applicants' co-pending International patent application No. PCT/AU00/01476 (WO 01/40500). Using the screening assay, twenty novel tropanyl ester compounds as well as tropanyl dichlorobenzoate were screened for nematicidal activity.
The assay used was essentially that described in WO 01/40500 with minor modifications. The protocol was as follows:
(1.) Plate Culture. C. elegans of the Bristol N2 strain (Brenner, 1974) were cultured at room temperature on HMS174 E. coli bacteria (Campbell et al., 1978) spread on a 150 mm diameter petri dish containing enhanced NGM 1.7% (w/v) (Avery and Horvitz, 1990) agar until a good population of adult nematodes was present, but food reserves had not been exhausted.
(2.) The nematodes were collected by washing each plate with 10 mL and then 5 mL of M9 buffer plate and filtering over a 20 μm nylon mesh (Nytal—Catalogue no. BCNY-HDO02-20) to retain adult nematodes. The nematodes from 7-8 of these 150 mm plates were collected together and placed on a 63 μm mesh filter (Nytal—product code PA-25-43) and washed with 200-250 mL of M9 buffer or MilliQ water. This procedure allows the passage of nematodes whilst retaining larger debris. Finally the nematodes were collected over a 20 μm mesh.
(3.) Adult nematodes were collected from the mesh using a pasteur pipette and allowed to settle in an eppendorf tube at 1×g for 10 minutes. This packed volume was used to calculate quantities of nematodes for experiments and assays, although nematodes were resuspended in 2-10 volumes of M9 buffer for transfer. Quantitative transfers of nematodes were performed using a Gilson Pipetman P200 or equivalent and a yellow tip with 5 mm cut off the sharp end.
(4.) Assays were performed in 24 well tissue-lture clusters (Nunc multidish). The final assay volume was 230 μL comprising the following sequential additions: • (i) M9 buffer—sufficient to bring the final volume to 230 μL • ([…]) Any other pharmacological agents—≦1.5 μL of drug in DMSO (or water) • (iv) Nematodes—150 μL of a 10% (v/v) stock in M9 • (v) Fluorescent beads—23 μL of a 1% w/v solution in M9.
Where serotonin or other pharmacological agents were omitted, the volume was adjusted with M9 buffer. Control experiments included 1.5 μL of DMSO except in the case of ondansetron, which was added from an aqueous stock.
The fluorescent beads were 1.30 μm uniformly dyed microsphere beads with a hydrophilic surface-coating. The fluorescence excitation maximum was 420 nm and the emission maximum was 485 nm (catalogue code FC04F, carboxylate-modified polystyrene/polyvinyl copolymer, manufactured and supplied by Bangs Laboratories, Inc. 9025 Technology Drive, Fishers, INDIANA 46038-2886, USA).
(5.) The nematodes were incubated for 60 minutes after the addition of the fluorescent beads at room temperature (≈21° C.) without shaking. The assay was terminated by the addition of 20 μL of 100 mM sodium azide.
(6.) Two aliquots of 100 μl each were transferred from each well of the 24 well cluster to a pair of wells in a pre-blocked mesh-bottomed plate (see below for details of the mesh-bottomed plate) and the buffer/bead suspension was immediately aspirated away through the filter mesh using a Millipore Multiscreen vacuum manifold.
(7.) A total of eight washing steps were performed. Each of the first five washes used 200 μL of 1%(w/v) sodium lauryl sulphate (SDS—Sigma) in M9 buffer. The third and fifth washes involved pipetting the solution up and down in the wells of the plate ten times each wash. The SDS washes were followed by three washes with 200 μL of M9 buffer only. At the end of each washing step, solutions were aspirated away through the mesh using a Millipore Multiscreen vacuum manifold. […]

Another data set relates to aphid Myzus persicae. The note with it: in vivo; cited from earlier work.
[3] abbreviates: listed as tropanyl dichlorobenzoate.
The mark [4] stands for this setting: in the presence of 1 mM serotonin, estimated from log dose response curves (FIG. 2), read-out: IC50 (inhibitory concentration 50%) for bead ingestion.

“Also recorded” adds a separate entry of the source. Read-outs that look alike come from different tables or passages of the source.

With `CN1[C@@H]2CC[C@H]1CC(OC(=O)c1cc(Cl)cc(Cl)c1)C2` (some centres unmarked) [MDL 72222, 3,5-dichlorobenzoic acid tropan-3-yl ester], in data set [1], the “Effect on larval growth rates” value is reported as “reduced growth rates”. In the data set with C. elegans (in vivo, listed as tropanyl dichlorobenzoate), the “Detrimental effects on C. elegans” value was “dose-dependent mortality and other detrimental effects; also recorded: dose-dependent detrimental effects, including lethality”. Moreover, the “Lowest effective concentration in the chronic toxicity assay” value with C. elegans (reported previously in WO 01/61000) is ~11 µM. In addition, in the data set on nematode C. elegans, the “Effect on pharyngeal pumping” value was “profoundly inhibited” and the “Effect on serotonin-stimulated rate of pharyngeal pumping” value is “antagonised the stimulatory effect”. In addition, the “Detrimental effects in insects” value with insects is reported as “significant detrimental effects, including some mortality”. Moreover, in data set [2], the “Effect of 0.325 mM compound on serotonin-stimulated (0.325 mM) bead ingestion” value was “reverses strongly” and the “Effect of 0.325 mM compound on bead ingestion” value is given as “inhibits”. Also, in data set [2] (setting [3]), the “Effect of 0.325 mM compound on serotonin-stimulated (0.325 mM) bead ingestion” value is “strongly reversed” and the “Effect of 0.325 mM compound on bead ingestion” value is given as “reduced”. For the same molecule, the IC50 in data set [2] (in the absence of added serotonin, estimated (FIG. 2), read-out: IC50 (dose that depressed the basal bead ingestion rate by 50%)) is 11 µM. Also, the IC50 in data set [2] (setting [4]) was 40 µM. For the same molecule, the “Detrimental effects on Myzus persicae” value with aphid Myzus persicae is “dose-dependent detrimental effects, including lethality”.
As to `Cc1nccn1CC1CCc2c(c3ccccc3n2C)C1=O` (centres unmarked) [ondansetron], in the data set on nematode C. elegans, the “Effect on pharyngeal pumping” value is listed as “profoundly inhibited” and the “Effect on serotonin-stimulated rate of pharyngeal pumping” value is on record as “antagonised the stimulatory effect”. Moreover, the “Detrimental effects in insects” value in the data set on insects was “significant detrimental effects, including some mortality”. The IC50 in data set [2] (setting [4]) was 562 µM.
